According to patent US8962600B2, “Neuroprotective compounds and their use” (The Medical College of Wisconsin, Inc., priority 2009, dated 2015):

How the values were obtained:
[1] = test system: subchronic MPTP mouse model; assay: Subchronic MPTP mouse model, striatal neurotransmitters by HPLC-EC (Example 2); type: in vivo; conditions: for protection against subchronic MPTP-induced depletion of striatal dopac levels / protection against subchronic MPTP-induced depletion of striatal dopamine levels: MPTP 20 mg/kg i.p. 5 days
Experimental: The triphenylphosphonium-conjugated apocynin analogue, Mito-apocynin, acts as a potent mitochondrial targeted antioxidant (MTA). The nigrostriative dopaminergic neurons undergo destruction in a slow and progressive manner in idiopathic PD. In order to mimic this condition in a preclinical mouse model, a subchronic MPTP mouse model was developed. The mouse model used here was similar to that used in Example 3 below. Mice were treated with Mito-apocynin (3 mg/kg, oral gavage) for 1 day followed by subchronic MPTP (20 mg/kg, i.p.) administration for 5 days. Animals were sacrificed 7 days after the last dose of MPTP (Mito-apocynin was administered during the 7 days). Striatal neurotransmitters (dopamine, dopac) were analyzed by HPLC-EC. Similar experiments were performed with apocynin (20 mg/kg, oral gavage; lower doses were also tested but not effective).

BV2 microglial cells = assay: LPS-induced iNOS activation (nitrite, Griess reagent) in BV2 microglial cells; type: cell-based, mouse; conditions: 30 min pretreatment, Griess reagent
Experimental: Two cell models of neuroinflammation were used to evaluate the anti-neuroinflammatory property of diapocynin including the mouse BV2 microglial cell line, as well as primary microglia isolated from mouse brains. BV2 cells were obtained from the American Tissue Culture Collection. BV2 cells were maintained in RPMI containing 10% FBS and 100 units of pen/strep at 37° C. and 5% CO2. For treatments, RPMI containing 2% FBS and 100 units of pen/strep was used.
Inducible nitric oxide synthase (iNOS or NOS2) activation was assessed by measuring nitrite levels using Griess reagent in a 96-well format (70-72). Each well contained 40,000 BV2 cells or 100,000 primary microglia. BV2 cells were cultured in 150 μl of RPMI containing 10% FBS and pen/strep, and the primary microglia were cultured in DMEM-F12 containing 10% FBS, pen/strep, sodium pyruvate (S/P), Q, and NEAAs. One day after culturing, cells were replaced with 150 μl of their respective complete media containing only 2% FBS. Both cell types were pretreated with diapocynin (10 μM) and apocynin (100 μM) for 30 min before LPS stimulation (1 μg/ml LPS for BV2 cells and 100 ng/ml for primary microglia), and the plates were incubated at 37° C. After 24 hr at 37° C., 100 μl of supernatant were removed and placed into a new 96 well plate, to which 100 μl of Griess reagent were added. The plate was shaken on a plate shaker for 10 min before being read in a plate reader at 540 nm.
This example generally followed the cell culture, treatment, and analysis steps of Example 4 above.
Diapocynin diacetate (diapodiacetate or diapo diace) suppresses LPS-induced NOS-2 in BV2 microglial cells (FIG. 21). BV-2 cells were plated in 96 well plates, 40,000 cells per well, and treated in 150 μl of RPMI containing 2% heat inactivated FBS and penicillin/streptomycin. Diapo diacetate was used on the cells as a 30 min pretreatment, then LPS (1 μg/ml) was added. All treatments were allowed to incubate at 37° C. for 24 hr, starting from the addition of LPS. One hundred microliter aliquots of supernatant from each well were combined with 100 μl of Griess reagent (Sigma) in a 96-well plate and allowed to shake for 10 minutes before being read on the plate reader. The percent nitrite level for the treatments compared to the control was graphed.

G93A mice = conditions: apocynin 300 mg/kg; cited from earlier work
IL-10 = assay: LPS-induced IL-10 release in primary microglia, LUMINEX immunoassay; type: cell-based, mouse; conditions: apocynin 100 μM, LPS 24 hr
Experimental: (§1) Primary microglia were obtained from 1-2 day old C57/b16 mouse pups. Upon collection, whole brains were kept in ice-cold DMEM-F12 medium containing 10% FBS, 1× sodium pyruvate, 1× NEAAs, 100 units pen/strep, and Q. After collection, the brains were placed in 0.25% trypsin-EDTA and incubated at 37° C., with gentle shaking every 5-10 min. After 30 min, the trypsin was removed, and the brains are washed in warmed medium twice. After washing, medium was added to the brains, and the brains were homogenized using gentle pipetting, starting with a 25 ml pipette and moving to smaller pipette tips as the brains were broken up. When the brains were sufficiently homogenized to a single-cell suspension, they were filtered with a 70 μm nylon filter, which allowed microglia and astrocytes to be collected. The resultant cell suspension was plated in T-75 flasks and allowed to grow for 12-14 days at 37° C., 5% CO2. […]
(§2) Cytokine levels of BV2 and microglial cells treated with diapocynin were determined by LUMINEX® multiplex immunoassay. […]
(§3) Cytokine standards and controls were adjusted to 40 μl volume and the LUMINEX® Samples were run on a LUMINEX® 200 Total System and analyzed with Multiplex Analysis—LUMINEX® Software (Invitrogen, Carlsbad, Calif.).

IL-12 = assay: LPS-induced IL-12 release in primary microglia, LUMINEX immunoassay; type: cell-based, mouse; conditions: apocynin 100 μM, LPS 24 hr
Experimental: as §1, §2, §3

IL-1β = assay: LPS-induced IL-1β release in primary microglia, LUMINEX immunoassay; type: cell-based, mouse; conditions: apocynin 100 μM, LPS 24 hr
Experimental: as §1, §2, §3

TNF-α = assay: LPS-induced TNF-α release in primary microglia, LUMINEX immunoassay; type: cell-based, mouse; conditions: apocynin 100 μM, LPS 24 hr
Experimental: as §1, §2, §3

[2] = Mito-apocynin 3 mg/kg oral gavage, sacrifice 7 days after last MPTP dose

COc1cc(C(=O)NCC[P+](c2ccccc2)(c2ccccc2)c2ccccc2)ccc1O.[Br-] [Mito-apocynin]
protection against subchronic MPTP-induced depletion of striatal dopac levels [1, 2]: almost completely protected | protection against subchronic MPTP-induced depletion of striatal dopamine levels [1, 2]: almost completely protected

COc1cc(C(C)=O)ccc1O [apocynin, Apocynin, reference compound]
EC50 (BV2 microglial cells; Mus musculus, BV-2 cells, LPS 1 μg/ml, non-linear regression of dose response curve, read-out: EC50, block of LPS-induced iNOS activation (nitrite level)): 61.3 µM | protection against subchronic MPTP-induced depletion of striatal dopac levels ([1]; apocynin 20 mg/kg oral gavage): not | protection against subchronic MPTP-induced depletion of striatal dopamine levels ([1]; apocynin 20 mg/kg oral gavage): not | effect on striatal neurotransmitters (dopamine, dopac) ([1]; apocynin at doses lower than 20 mg/kg, oral gavage): not effective | lifespan of G93A mice (G93A mice): markedly enhanced | blocking LPS-induced release of IL-10 (IL-10): also effective | blocking LPS-induced release of IL-12 (IL-12): also effective | blocking LPS-induced release of IL-1β (IL-1β): also effective | blocking LPS-induced release of TNF-α (TNF-α): also effective

Diapocynin diacetate
LPS-induced NOS-2 (percent nitrite level compared to control) (BV2 microglial cells; BV2 cells, LPS 1 μg/ml 24 hr): suppresses
